From PubChem BioAssay AID248 (DTP/NCI, 2004)
Values joined by “and” are separate entries in the source; they are usually repeats but may differ in a detail not shown here. Equal values may be shown once. Inconclusive results and toxic doses are left out.

Test system: L1210 leukemia ip in BDF1 mice, survival T/C
Experiment: NCI In Vivo Anticancer Drug Screen. Data for tumor model L1210 Leukemia (intraperitoneal) in B6D2F1 (BDF1) mice
Conditions: endpoint: mean survival time, higher = longer survival
In short: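 Mice bearing the transplanted tumor received compound or vehicle. Survival of the treated group was divided by that of the vehicle-treated control group to give the ratio.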

[1] = dose: 100.0 mg/kg/injection, schedule: Q01DX009 (ip), vehicle: Klucel (hydroxypropylcellulose) (HPC)
[2] = dose: 100.0 mg/kg/injection, schedule: Q04DX003 (ip), vehicle: Klucel (hydroxypropylcellulose) (HPC)
[3] = dose: 200.0 mg/kg/injection, schedule: Q01DX009 (ip), vehicle: Klucel (hydroxypropylcellulose) (HPC)
[4] = dose: 200.0 mg/kg/injection, schedule: Q04DX003 (ip), vehicle: Klucel (hydroxypropylcellulose) (HPC)
[5] = dose: 400.0 mg/kg/injection, schedule: Q01DX009 (ip), vehicle: Klucel (hydroxypropylcellulose) (HPC)
[6] = dose: 100.0 mg/kg/injection, schedule: Q01DX009 (ip), vehicle: saline with Tween-80
[7] = dose: 100.0 mg/kg/injection, schedule: Q04DX003 (ip), vehicle: saline with Tween-80
[8] = dose: 200.0 mg/kg/injection, schedule: Q01DX009 (ip), vehicle: saline with Tween-80
[9] = dose: 200.0 mg/kg/injection, schedule: Q04DX003 (ip), vehicle: saline with Tween-80
[10] = dose: 400.0 mg/kg/injection, schedule: Q01DX009 (ip), vehicle: saline with Tween-80
[11] = dose: 400.0 mg/kg/injection, schedule: Q04DX003 (ip), vehicle: saline with Tween-80
[12] = dose: 25.0 mg/kg/injection, schedule: Q01DX009 (ip), vehicle: Klucel (hydroxypropylcellulose) (HPC)
[13] = dose: 50.0 mg/kg/injection, schedule: Q01DX009 (ip), vehicle: Klucel (hydroxypropylcellulose) (HPC)
[14] = dose: 100.0 mg/kg/injection, schedule: Q01DX001 (ip), vehicle: saline
[15] = dose: 200.0 mg/kg/injection, schedule: Q01DX001 (ip), vehicle: saline
[16] = dose: 100.0 mg/kg/injection, schedule: Q01DX001 (ip), vehicle: carboxymethylcellulose (CMC)
[17] = dose: 200.0 mg/kg/injection, schedule: Q01DX001 (ip), vehicle: carboxymethylcellulose (CMC)
[18] = dose: 400.0 mg/kg/injection, schedule: Q01DX001 (ip), vehicle: carboxymethylcellulose (CMC)

SMILES: CC(C)(C)C(/C=N/N=C(N)N)=N\N=C(N)N
- T/C (dose: 15.0 mg/kg/injection, schedule: Q01DX Z (ip), vehicle: methylcellulose (MC)): 105 % of control
- T/C (dose: 30.0 mg/kg/injection, schedule: Q01DX Z (ip), vehicle: methylcellulose (MC)): 91 % of control
- T/C (dose: 60.0 mg/kg/injection, schedule: Q01DX Z (ip), vehicle: methylcellulose (MC)): 94 % of control
- T/C (dose: 120.0 mg/kg/injection, schedule: Q01DX Z (ip), vehicle: methylcellulose (MC)): 91 % of control
- T/C (dose: 600.0 mg/kg/injection, schedule: Q01DX Z (oral), vehicle: methylcellulose (MC)): 110 % of control
- T/C (dose: 720.0 mg/kg/injection, schedule: Q01DX Z (oral), vehicle: methylcellulose (MC)): 98 % of control

SMILES: Cc1ccc(N=C(c2ccc([N+](=O)[O-])cc2)c2ccc([N+](=O)[O-])cc2)cc1
- T/C [1]: 97 % of control
- T/C [2]: 96 % of control
- T/C [3]: 96 % of control
- T/C [4]: 102 % of control
- T/C [5]: 102 % of control
- T/C (dose: 400.0 mg/kg/injection, schedule: Q04DX003 (ip), vehicle: Klucel (hydroxypropylcellulose) (HPC)): 96 % of control

SMILES: Cc1ccc(C)c(NC(=O)Nc2nccs2)c1
- T/C (dose: 100.0 mg/kg/injection, schedule: Q01DX001 (ip), vehicle: saline with Tween-80): 96 % of control
- T/C [6]: 96 % of control and 97 % of control
- T/C (dose: 100.0 mg/kg/injection, schedule: Q04DX002 (ip), vehicle: saline with Tween-80): 96 % of control and 90 % of control
- T/C [7]: 95 % of control
- T/C (dose: 200.0 mg/kg/injection, schedule: Q01DX001 (ip), vehicle: saline with Tween-80): 104 % of control
- T/C [8]: 92 % of control and 93 % of control
- T/C (dose: 200.0 mg/kg/injection, schedule: Q04DX002 (ip), vehicle: saline with Tween-80): 93 % of control and 97 % of control
- T/C [9]: 86 % of control
- T/C (dose: 400.0 mg/kg/injection, schedule: Q01DX001 (ip), vehicle: saline with Tween-80): 96 % of control
- T/C [10]: 94 % of control and 96 % of control
- T/C (dose: 400.0 mg/kg/injection, schedule: Q04DX002 (ip), vehicle: saline with Tween-80): 100 % of control and 110 % of control
- T/C [11]: 88 % of control

SMILES: C1CSC(SCCSC2=NCCS2)=N1
- T/C (dose: 62.5 mg/kg/injection, schedule: Q01DX009 (ip), vehicle: carboxymethylcellulose (CMC)): 89 % of control
- T/C (dose: 125.0 mg/kg/injection, schedule: Q01DX009 (ip), vehicle: carboxymethylcellulose (CMC)): 100 % of control
- T/C (dose: 250.0 mg/kg/injection, schedule: Q01DX009 (ip), vehicle: carboxymethylcellulose (CMC)): 96 % of control

SMILES: CC(=O)CC(=O)NCC(CCN1CCCCC1)(c1cccc2ccccc12)C(C)C (stereo not drawn)
- T/C [12]: 106 % of control
- T/C [13]: 95 % of control

SMILES: Clc1ccc(/C=C/c2nc(Cl)c(-c3ccc(Cl)cc3)c(Cl)n2)cc1
- T/C (dose: 75.0 mg/kg/injection, schedule: Q01DX001 (ip), vehicle: saline): 105 % of control
- T/C (dose: 150.0 mg/kg/injection, schedule: Q01DX001 (ip), vehicle: saline): 92 % of control
- T/C (dose: 150.0 mg/kg/injection, schedule: Q04DX003 (ip), vehicle: Klucel (hydroxypropylcellulose) (HPC)): 113 % of control
- T/C (dose: 300.0 mg/kg/injection, schedule: Q01DX001 (ip), vehicle: saline): 97 % of control
- T/C (dose: 300.0 mg/kg/injection, schedule: Q04DX003 (ip), vehicle: Klucel (hydroxypropylcellulose) (HPC)): 92 % of control

SMILES: NC(CCl)=NCC1CCCC1
- T/C (dose: 12.5 mg/kg/injection, schedule: Q04DX002 (ip), vehicle: Klucel (hydroxypropylcellulose) (HPC)): 96 % of control
- T/C (dose: 25.0 mg/kg/injection, schedule: Q04DX002 (ip), vehicle: Klucel (hydroxypropylcellulose) (HPC)): 96 % of control
- T/C (dose: 50.0 mg/kg/injection, schedule: Q04DX002 (ip), vehicle: Klucel (hydroxypropylcellulose) (HPC)): 96 % of control

SMILES: Cn1c(=O)c(-c2ccccc2)[n+]([O-])c2ccccc21
- T/C (dose: 50.0 mg/kg/injection, schedule: Q01DX001 (ip), vehicle: saline): 104 % of control
- T/C [14]: 101 % of control
- T/C [15]: 101 % of control
- T/C (dose: 400.0 mg/kg/injection, schedule: Q01DX001 (ip), vehicle: saline): 101 % of control

SMILES: N#Cc1ccccc1COCc1ccccc1
- T/C [1]: 102 % of control
- T/C [3]: 98 % of control
- T/C [5]: 95 % of control

SMILES: CC(=O)OCCC/C(=C\c1ccc2ccccc2c1)[N+](=O)[O-]
- T/C [16]: 98 % of control
- T/C [17]: 93 % of control
- T/C [18]: 89 % of control

SMILES: O=C1OC(=O)C2C3C=CC(C3)C12 (stereo not drawn)
- T/C (dose: 12.5 mg/kg/injection, schedule: Q01DX009 (ip), vehicle: saline with Tween-80): 97 % of control
- T/C [12]: 100 % of control
- T/C (dose: 25.0 mg/kg/injection, schedule: Q01DX009 (ip), vehicle: saline with Tween-80): 100 % of control
- T/C (dose: 50.0 mg/kg/injection, schedule: Q01DX001 (ip), vehicle: carboxymethylcellulose (CMC)): 104 % of control
- T/C [13]: 96 % of control
- T/C (dose: 50.0 mg/kg/injection, schedule: Q01DX009 (ip), vehicle: saline with Tween-80): 96 % of control
- T/C [16]: 106 % of control and 96 % of control
- T/C [1]: 105 % of control and 87 % of control
- T/C [6]: 90 % of control
- T/C [2]: 102 % of control
- T/C [7]: 98 % of control
- T/C [17]: 104 % of control and 91 % of control
- T/C [8]: 92 % of control
- T/C [4]: 89 % of control
- T/C [9]: 98 % of control
- T/C [18]: 95 % of control and 96 % of control
- T/C [10]: 88 % of control
- T/C [11]: 97 % of control

SMILES: Cc1ccc(C(SCC(N)C(=O)O)(c2ccccc2)c2ccc(C)cc2)cc1 (stereo not drawn)
- T/C (dose: 6.25 mg/kg/injection, schedule: Q01DX009 (ip), vehicle: other): 124 % of control
- T/C (dose: 12.5 mg/kg/injection, schedule: Q01DX009 (ip), vehicle: other): 152 % of control
- T/C (dose: 12.5 mg/kg/injection, schedule: Q01DX009 (ip), vehicle: saline): 156 % of control and 197 % of control
- T/C (dose: 25.0 mg/kg/injection, schedule: Q01DX009 (ip), vehicle: other): 164 % of control
- T/C (dose: 25.0 mg/kg/injection, schedule: Q01DX009 (ip), vehicle: saline): 179 % of control and 195 % of control
- T/C (dose: 50.0 mg/kg/injection, schedule: Q01DX009 (ip), vehicle: saline): 113 % of control and 88 % of control

SMILES: Cc1ccccc1OCC(Cl)CN(C)C (stereo not drawn)
- T/C [14]: 100 % of control
- T/C [15]: 102 % of control

SMILES: Cc1nc(N)nc2c1CCC(O)S2 (stereo not drawn)
- T/C (dose: 50.0 mg/kg/injection, schedule: Q01DX001 (ip), vehicle: Klucel (hydroxypropylcellulose) (HPC)): 89 % of control
- T/C (dose: 200.0 mg/kg/injection, schedule: Q01DX001 (ip), vehicle: Klucel (hydroxypropylcellulose) (HPC)): 86 % of control

SMILES: NC(N)=Nc1ccc(/C=C2\C=Cc3ccccc32)cc1
- T/C [17]: 101 % of control

SMILES: C=CCc1ccc(OC(=O)Nc2cccc(Cl)c2)c(OC)c1
- T/C (dose: 100.0 mg/kg/injection, schedule: Q01DX009 (ip), vehicle: carboxymethylcellulose (CMC)): 98 % of control and 102 % of control
- T/C (dose: 100.0 mg/kg/injection, schedule: Q04DX002 (ip), vehicle: Klucel (hydroxypropylcellulose) (HPC)): 95 % of control
- T/C (dose: 100.0 mg/kg/injection, schedule: Q04DX002 (ip), vehicle: carboxymethylcellulose (CMC)): 102 % of control
- T/C (dose: 100.0 mg/kg/injection, schedule: Q04DX003 (ip), vehicle: carboxymethylcellulose (CMC)): 101 % of control
- T/C (dose: 200.0 mg/kg/injection, schedule: Q01DX009 (ip), vehicle: carboxymethylcellulose (CMC)): 100 % of control and 92 % of control
- T/C (dose: 200.0 mg/kg/injection, schedule: Q04DX002 (ip), vehicle: Klucel (hydroxypropylcellulose) (HPC)): 92 % of control
- T/C (dose: 200.0 mg/kg/injection, schedule: Q04DX002 (ip), vehicle: carboxymethylcellulose (CMC)): 112 % of control
- T/C (dose: 200.0 mg/kg/injection, schedule: Q04DX003 (ip), vehicle: carboxymethylcellulose (CMC)): 95 % of control
- T/C (dose: 400.0 mg/kg/injection, schedule: Q01DX009 (ip), vehicle: carboxymethylcellulose (CMC)): 95 % of control and 98 % of control
- T/C (dose: 400.0 mg/kg/injection, schedule: Q04DX002 (ip), vehicle: Klucel (hydroxypropylcellulose) (HPC)): 95 % of control
- T/C (dose: 400.0 mg/kg/injection, schedule: Q04DX002 (ip), vehicle: carboxymethylcellulose (CMC)): 105 % of control
- T/C (dose: 400.0 mg/kg/injection, schedule: Q04DX003 (ip), vehicle: carboxymethylcellulose (CMC)): 100 % of control
